Target: mGluR2-mGluR2 dimer (Rattus norvegicus, UniProt P31421)
Details: for change in TRF520 signal in the presence of the compound: delay 50 μs, integration time 450 μs, BG-Lumi4-Tb/BC-fluorescein, dose-dependent; for maximum variation of TRF520 signal: dose-response up to 100 μM DCG-IV / 316 μM glutamate

mGluR2-mGluR2 dimer, sequence (P31421 23-872): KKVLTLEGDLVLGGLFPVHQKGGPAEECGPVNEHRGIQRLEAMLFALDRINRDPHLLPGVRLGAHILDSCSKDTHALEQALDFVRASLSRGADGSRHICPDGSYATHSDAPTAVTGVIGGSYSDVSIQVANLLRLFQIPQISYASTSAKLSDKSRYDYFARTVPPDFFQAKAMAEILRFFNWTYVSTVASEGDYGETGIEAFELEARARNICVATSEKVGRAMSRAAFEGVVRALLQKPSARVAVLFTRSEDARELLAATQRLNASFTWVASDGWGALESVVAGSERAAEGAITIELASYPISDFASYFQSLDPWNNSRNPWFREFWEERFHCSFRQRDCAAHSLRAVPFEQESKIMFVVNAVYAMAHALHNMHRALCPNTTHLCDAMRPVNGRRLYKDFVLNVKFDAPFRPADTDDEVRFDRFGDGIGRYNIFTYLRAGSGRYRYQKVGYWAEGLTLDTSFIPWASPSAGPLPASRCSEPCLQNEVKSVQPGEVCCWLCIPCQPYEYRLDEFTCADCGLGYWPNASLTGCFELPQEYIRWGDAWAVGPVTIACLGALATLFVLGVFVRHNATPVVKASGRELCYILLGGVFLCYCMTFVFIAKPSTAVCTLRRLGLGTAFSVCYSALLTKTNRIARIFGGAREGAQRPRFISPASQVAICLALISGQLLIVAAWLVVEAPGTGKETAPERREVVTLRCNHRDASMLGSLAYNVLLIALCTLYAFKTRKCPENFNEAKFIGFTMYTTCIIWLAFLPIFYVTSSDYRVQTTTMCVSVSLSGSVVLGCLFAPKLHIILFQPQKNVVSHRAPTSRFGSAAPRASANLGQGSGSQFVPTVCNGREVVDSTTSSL
mGluR2-mGluR2 dimer, sequence (P31421 23-872): as above

| SMILES | TRF520 signal for a given glutamate concentration, in the presence versus absence of the modulator (4-MPPTS 10 μM, glutamate 1-1000 μM) | change in TRF520 signal in the presence of the compound | maximum variation of TRF520 signal | variation in TRF520 (glutamate 100 μM, in the absence of the antagonist LY341495) | EC50 (read-out: concentration necessary for obtaining a variation equal to half the maximum variation (close to the pharmacological EC50), TRF520 signal, printed value is given as the pharmacological EC50) |
| --- | --- | --- | --- | --- | --- |
| COc1ccccc1Oc1ccc(N(Cc2cccnc2)S(=O)(=O)CC(F)(F)F)cc1 [4-MPPTS] | greater decrease in signal |  |  |  |  |
| N[C@@H](CCC(=O)O)C(=O)O [glutamate, L-glutamic acid] |  | decrease in TRF520 | 50% | 50% |  |
| N[C@H](C(=O)O)C1[C@@H](C(=O)O)[C@@H]1C(=O)O (stereo partly shown) [DCG-IV] |  | inhibiting the TRF520 signal in a dose-dependent manner | 30% |  | ~0.4 µM |
